This note sets out measurements from patent publication US20190330224A1, “ACC INHIBITORS AND USES THEREOF” (Gilead Apollo, LLC, priority 2015, published 2019).

In brackets after ≈: the same amount, converted by molar mass. A value given as a limit tells only on which side of the number the result lay.

The test system of one assay is C. krusei ATCC 6258. The assay is described as follows: Anti-Fungal Activity Assay (broth microtiter MIC), C. krusei. It counts as cell-based, Candida krusei. To be noted: 3 replicates, MIC recorded at 48 h; for MIC: Pichia kudriavzevii, ATCC6258, 48 h, read-out: MIC C. krusei ATCC 6258. As to the method:
(§1) Compounds of the present invention were evaluated in an Anti-Fungal Activity Assay. An exemplary procedure for the assay, which measures the susceptibility of various Candida species to anti-fungal compounds, follows. Compounds to be tested (including fluconazole and amphotericin B) were dissolved in DMSO to obtain a solution having a concentration of 1 mg/mL. […] All species were grown from frozen stock by directly plating on to freshly prepared Sabouraud Dextrose agar (BD, Difco) and incubated overnight in ambient air at 35° C. for 24 h. A direct suspension was prepared in RPMI 1640+MOPS (Lonza, Biowhittaker) by taking individual colonies from the overnight cultures using sterile swabs soaked in sterile saline. The concentration of the suspension was determined using pre-determined standard curves. […] Broth microtiter MIC challenge plates were prepared following CLSI guidelines (M27-A3, Vol. 28 No. 14). The original CLSI guidelines focused on reading Candida MICs after 48 h of incubation. As reading after only 24 h offers a clear advantage of patient care, QC limits are being established for all drugs at 24 h. That being said there are no known interpretive breakpoints for amphotericin B at 24 h and the current fluconazole interpretive breakpoints are based on a 48 h reading. The MIC breakpoints for the test compounds were recorded at 48 h, and for the soraphen the 24 h time-point was added. All MIC determinations were achieved by visually comparing the growth found in the antibiotic challenged wells to that of the growth control.

For another assay, the target named is Human ACC2 (Homo sapiens, UniProt O00763). The assay is described as follows: In vitro ACC2 inhibition assay (ADP-Glo), human ACC2. The format is biochemical. As to conditions: 5 nM ACC2, 20 μM ATP, 20 μM acetyl-CoA. A general note: ADP-Glo turns the ADP formed in a reaction into a luminescent signal.
In a further assay the test system is C. albicans ATCC 90028. The assay is described as follows: Anti-Fungal Activity Assay (broth microtiter MIC), C. albicans. The format is cell-based, Candida albicans. To be noted: 3 replicates, MIC recorded at 48 h; for MIC: Candida albicans, ATCC90028, 48 h, read-out: MIC C. albicans ATCC 90028. Here is the method:
as §1

In assay [1] the test system is C. parapsilosis ATCC 22019. Description: Anti-Fungal Activity Assay (broth microtiter MIC), C. parapsilosis. The format is cell-based, Candida parapsilosis. As to conditions: 3 replicates, MIC recorded at 48 h; for MIC: Lodderomyces parapsilosis, ATCC22019, 48 h, read-out: MIC C. parapsilosis ATCC 22019. Here is the method: as §1

Sequence of Human ACC2 (O00763 whole entry): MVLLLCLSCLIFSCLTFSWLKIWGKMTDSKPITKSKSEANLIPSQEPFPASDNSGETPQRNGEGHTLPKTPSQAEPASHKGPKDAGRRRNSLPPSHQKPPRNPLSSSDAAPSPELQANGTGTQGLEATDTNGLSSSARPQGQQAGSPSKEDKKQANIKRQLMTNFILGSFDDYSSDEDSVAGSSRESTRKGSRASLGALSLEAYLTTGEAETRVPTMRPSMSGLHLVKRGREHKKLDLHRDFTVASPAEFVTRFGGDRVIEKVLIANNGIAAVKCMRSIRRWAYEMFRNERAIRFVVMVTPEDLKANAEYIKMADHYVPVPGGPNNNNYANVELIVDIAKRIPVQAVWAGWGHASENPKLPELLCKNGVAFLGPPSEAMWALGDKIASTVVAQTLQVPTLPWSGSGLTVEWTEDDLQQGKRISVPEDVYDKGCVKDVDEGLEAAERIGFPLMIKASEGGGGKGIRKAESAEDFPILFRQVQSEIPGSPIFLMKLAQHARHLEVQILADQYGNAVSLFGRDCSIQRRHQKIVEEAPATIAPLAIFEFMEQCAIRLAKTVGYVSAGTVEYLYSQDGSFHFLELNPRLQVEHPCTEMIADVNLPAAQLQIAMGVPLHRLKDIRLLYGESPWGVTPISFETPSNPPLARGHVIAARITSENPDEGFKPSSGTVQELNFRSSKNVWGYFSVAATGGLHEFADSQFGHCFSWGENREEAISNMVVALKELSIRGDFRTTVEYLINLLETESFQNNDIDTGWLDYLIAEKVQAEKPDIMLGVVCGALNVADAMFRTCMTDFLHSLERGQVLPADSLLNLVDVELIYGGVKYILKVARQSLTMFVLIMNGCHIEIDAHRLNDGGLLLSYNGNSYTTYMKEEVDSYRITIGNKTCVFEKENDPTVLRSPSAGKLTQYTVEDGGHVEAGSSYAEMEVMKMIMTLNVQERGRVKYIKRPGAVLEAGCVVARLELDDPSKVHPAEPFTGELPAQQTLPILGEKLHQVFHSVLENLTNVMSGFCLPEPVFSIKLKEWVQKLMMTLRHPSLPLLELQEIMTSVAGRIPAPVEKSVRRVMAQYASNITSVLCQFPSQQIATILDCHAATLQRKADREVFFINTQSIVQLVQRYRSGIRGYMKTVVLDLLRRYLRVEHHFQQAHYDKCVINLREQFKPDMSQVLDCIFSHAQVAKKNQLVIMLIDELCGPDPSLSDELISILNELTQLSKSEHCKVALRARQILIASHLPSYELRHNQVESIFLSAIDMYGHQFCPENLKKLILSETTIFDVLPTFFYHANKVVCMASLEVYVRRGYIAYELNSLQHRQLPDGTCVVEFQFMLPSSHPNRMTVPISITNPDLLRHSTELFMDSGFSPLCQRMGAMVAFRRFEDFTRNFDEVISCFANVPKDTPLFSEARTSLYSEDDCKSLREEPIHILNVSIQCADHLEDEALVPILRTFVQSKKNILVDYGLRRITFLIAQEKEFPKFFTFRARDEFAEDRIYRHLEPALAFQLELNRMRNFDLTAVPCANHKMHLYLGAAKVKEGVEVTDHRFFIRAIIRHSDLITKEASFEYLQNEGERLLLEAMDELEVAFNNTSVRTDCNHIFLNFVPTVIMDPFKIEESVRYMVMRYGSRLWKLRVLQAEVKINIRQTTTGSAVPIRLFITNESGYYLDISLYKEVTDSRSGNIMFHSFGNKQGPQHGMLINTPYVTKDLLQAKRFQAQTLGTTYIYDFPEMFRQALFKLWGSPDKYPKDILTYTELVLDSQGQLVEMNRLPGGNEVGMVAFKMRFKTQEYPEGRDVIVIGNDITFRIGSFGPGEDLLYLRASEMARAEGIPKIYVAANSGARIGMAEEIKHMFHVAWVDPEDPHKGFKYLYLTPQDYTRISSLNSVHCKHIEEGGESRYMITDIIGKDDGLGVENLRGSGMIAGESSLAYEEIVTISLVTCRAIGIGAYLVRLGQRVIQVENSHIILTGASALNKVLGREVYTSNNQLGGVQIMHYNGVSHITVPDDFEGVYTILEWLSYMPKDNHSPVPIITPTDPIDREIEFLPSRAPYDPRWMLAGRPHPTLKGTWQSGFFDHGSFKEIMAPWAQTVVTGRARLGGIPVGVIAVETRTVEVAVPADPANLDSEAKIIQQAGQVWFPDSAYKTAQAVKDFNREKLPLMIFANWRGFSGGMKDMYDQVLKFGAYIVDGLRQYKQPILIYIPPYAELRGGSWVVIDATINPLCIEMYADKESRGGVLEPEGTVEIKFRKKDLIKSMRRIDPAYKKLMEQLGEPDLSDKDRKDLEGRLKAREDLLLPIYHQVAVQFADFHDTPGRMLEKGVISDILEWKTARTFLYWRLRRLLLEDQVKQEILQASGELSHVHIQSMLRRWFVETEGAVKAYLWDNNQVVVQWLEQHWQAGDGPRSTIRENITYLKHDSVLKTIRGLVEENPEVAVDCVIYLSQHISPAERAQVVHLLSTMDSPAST

Usually IC50 stands for the concentration needed to halve the response being measured. In the case of `COc1ccc(F)cc1[C@H](Cn1c(=O)n([C@@H]2CCN(C(C)C)C2=O)c(=O)c2c(C)c(-n3nccn3)sc21)OC1CCOCC1` [Compound I-139, 1-((R)-2-(5-fluoro-2-methoxyphenyl)-2-((tetrahydro-2H-pyran-4-yl)oxy)ethyl)-3-((R)-1-isopropyl-2-oxopyrrolidin-3-yl)-5-methyl-6-(2H-1,2,3-triazol-2-yl)thieno[2,3-d]pyrimidine-2,4(1H,3H)-dione], the “MIC C. krusei ATCC 6258” value in the assay with C. krusei ATCC 6258 is recorded as “B (provided an MIC of 1.1-2.0 μg/mL)”. The compound further registered an IC50 against Human ACC2 of 2 to 10 nM. Moreover, the “MIC C. albicans ATCC 90028” value in the assay with C. albicans ATCC 90028 is “C (provided an MIC of 2.1-4.0 μg/mL)”. Besides, in assay [1], the “MIC C. parapsilosis ATCC 22019” value is given as “B (provided an MIC of 1.1-2.0 μg/mL)”.

As for `COc1ccc(F)cc1[C@H](Cn1c(=O)n([C@@]2(C)CCN(C)C2=O)c(=O)c2c(C)c(-n3nccn3)sc21)OCCO` [Compound I-149, 3-((S)-1,3-dimethyl-2-oxopyrrolidin-3-yl)-1-((R)-2-(5-fluoro-2-methoxyphenyl)-2-(2-hydroxyethoxy)ethyl)-5-methyl-6-(2H-1,2,3-triazol-2-yl)thieno[2,3-d]pyrimidine-2,4(1H,3H)-dione], the IC50 against Human ACC2 was above 1000 nM.

In general, MIC refers to the least concentration at which growth counts as inhibited. For the compound `COc1ccc(F)cc1[C@H](Cn1c(=O)n(C2CCCNC2=O)c(=O)c2c(C)c(-n3nccn3)sc21)OC1CCOCC1` (stereo partly drawn) [Compound I-21, 1-((R)-2-(5-fluoro-2-methoxyphenyl)-2-((tetrahydro-2H-pyran-4-yl)oxy)ethyl)-5-methyl-3-(2-oxopiperidin-3-yl)-6-(2H-1,2,3-triazol-2-yl)thieno[2,3-d]pyrimidine-2,4(1H,3H)-dione], the MIC with C. krusei ATCC 6258 fell in the range of 0.25 to 1 µg/mL (≈ 0.418 to 1.67 µM); in the assay with C. albicans ATCC 90028, 0.25 to 1 µg/mL (≈ 0.418 to 1.67 µM); in assay [1], 1.1 to 2 µg/mL (≈ 1.84 to 3.34 µM). Also, the IC50 on Human ACC2 lay within 2 to 10 nM.

As for `COc1ccc(F)cc1[C@H](Cn1c(=O)n(C2CCNC2=O)c(=O)c2c(C)c(-c3ncco3)sc21)OC1CCOCC1` (stereo partly drawn) [Compound I-58, 1-((R)-2-(5-fluoro-2-methoxyphenyl)-2-((tetrahydro-2H-pyran-4-yl)oxy)ethyl)-5-methyl-6-(oxazol-2-yl)-3-(2-oxopyrrolidin-3-yl)thieno[2,3-d]pyrimidine-2,4(1H,3H)-dione], the MIC (in the assay on C. krusei ATCC 6258; in the assay with C. albicans ATCC 90028; in assay [1]) was 2.1 to 4 µg/mL (≈ 3.59 to 6.84 µM) in each case. Besides, the IC50 against Human ACC2 fell in the range of 2 to 10 nM.

As to `COc1ccc(F)cc1[C@H](Cn1c(=O)n(C2CCCNC2=O)c(=O)c2c(C)c(-c3ncco3)sc21)OC1CCOCC1` (stereo partly drawn) [Compound I-51, 1-((R)-2-(5-fluoro-2-methoxyphenyl)-2-((tetrahydro-2H-pyran-4-yl)oxy)ethyl)-5-methyl-6-(oxazol-2-yl)-3-(2-oxopiperidin-3-yl)thieno[2,3-d]pyrimidine-2,4(1H,3H)-dione], the MIC in the assay on C. krusei ATCC 6258 was 2.1 to 4 µg/mL (≈ 3.51 to 6.68 µM); with C. albicans ATCC 90028, 1.1 to 2 µg/mL (≈ 1.84 to 3.34 µM); in assay [1], 2.1 to 4 µg/mL (≈ 3.51 to 6.68 µM). The IC50 at Human ACC2 was in the range of 10 to 100 nM.

On to `COc1ccc(F)cc1[C@H](Cn1c(=O)n([C@]2(C)CCNC2=O)c(=O)c2c(C)c(-n3nccn3)sc21)OCCO` [Compound I-144, 1-((R)-2-(5-fluoro-2-methoxyphenyl)-2-(2-hydroxyethoxy)ethyl)-5-methyl-3-((R)-3-methyl-2-oxopyrrolidin-3-yl)-6-(2H-1,2,3-triazol-2-yl)thieno[2,3-d]pyrimidine-2,4(1H,3H)-dione], for which, at Human ACC2, the IC50 was above 1000 nM.

Take `COc1ccc(F)cc1[C@H](Cn1c(=O)n([C@@H]2CCCNC2=O)c(=O)c2c(C)c(-c3ncco3)sc21)OCCO` [Compound I-64, 1-((R)-2-(5-fluoro-2-methoxyphenyl)-2-(2-hydroxy-ethoxy)ethyl)-5-methyl-6-(oxazol-2-yl)-3-((R)-2-oxopiperidin-3-yl)thieno[2,3-d]pyrimidine-2,4(1H,3H)-dione]: the MIC (in the assay with C. krusei ATCC 6258; with C. albicans ATCC 90028; in assay [1]) was 2.1 to 4 µg/mL (≈ 3.76 to 7.16 µM) in each case. This compound also showed an IC50 against Human ACC2 of 10 to 100 nM.

With `COc1ccccc1[C@H](Cn1c(=O)n(C2CCNC2=O)c(=O)c2c(C)c(-c3ncco3)sc21)OC1CCOCC1` (stereo partly drawn) [Compound I-56, 1-((R)-2-(2-methoxyphenyl)-2-((tetrahydro-2H-pyran-4-yl)oxy)ethyl)-5-methyl-6-(oxazol-2-yl)-3-(2-oxopyrrolidin-3-yl)thieno[2,3-d]pyrimidine-2,4(1H,3H)-dione], the MIC (with C. krusei ATCC 6258; in the assay on C. albicans ATCC 90028; in assay [1]) was 2.1 to 4 µg/mL (≈ 3.71 to 7.06 µM) in each case. The IC50 at Human ACC2 lay within 2 to 10 nM.

`COc1ccc(F)cc1[C@H](Cn1c(=O)n(C2CCNC2=O)c(=O)c2c(C)c(-n3nccn3)sc21)OC1CCOCC1` (stereo partly drawn) [Compound I-9, 1-((R)-2-(5-fluoro-2-methoxyphenyl)-2-((tetrahydro-2H-pyran-4-yl)oxy)ethyl)-5-methyl-3-(2-oxopyrrolidin-3-yl)-6-(22H-1,2,3-triazol-2-yl)thieno[2,3-d]pyrimidine-2,4(1H,3H)-dione] yielded an IC50 against Human ACC2 of 2 to 10 nM.

On to `COc1ccccc1[C@H](Cn1c(=O)n(C2CCCNC2=O)c(=O)c2c(C)c(-c3ncco3)sc21)OC1CCOCC1` (stereo partly drawn) [Compound I-49, 1-((R)-2-(2-methoxyphenyl)-2-((tetrahydro-2H-pyran-4-yl)oxy)ethyl)-5-methyl-6-(oxazol-2-yl)-3-(2-oxopiperidin-3-yl)thieno[2,3-d]pyrimidine-2,4(1H,3H)-dione], for which the MIC in the assay on C. krusei ATCC 6258 lay in the range of 2.1 to 4 µg/mL (≈ 3.62 to 6.89 µM); in the assay on C. albicans ATCC 90028, 1.1 to 2 µg/mL (≈ 1.89 to 3.44 µM); in assay [1] it was 2.1 to 4 µg/mL (≈ 3.62 to 6.89 µM). The IC50 at Human ACC2 is 10 to 100 nM.

Turning to `CCN1CCC(n2c(=O)c3c(C)c(-n4nccn4)sc3n(C[C@H](OCCOC)c3cc(F)ccc3OC)c2=O)C1=O` (stereo partly drawn) [Compound I-3, 3-(1-ethyl-2-oxopyrrolidin-3-yl)-1-((R)-2-(5-fluoro-2-methoxyphenyl)-2-(2-methoxyethoxy)ethyl)-5-methyl-6-(2H-1,2,3-triazol-2-yl)thieno[2,3-d]pyrimidine-2,4(1H,3H)-dione], the MIC (in the assay with C. krusei ATCC 6258; in the assay on C. albicans ATCC 90028; in assay [1]) was 2.1 to 4 µg/mL (≈ 3.58 to 6.82 µM) in each case. The same compound showed an IC50 at Human ACC2 of 10 to 100 nM.

`COc1ccc(F)cc1[C@H](Cn1c(=O)n([C@H]2CCCN(C(C)C)C2=O)c(=O)c2c(C)c(-n3nccn3)sc21)OC1CCOCC1` [Compound I-76, 1-((R)-2-(5-fluoro-2-methoxyphenyl)-2-((tetrahydro-2H-pyran-4-yl)oxy)ethyl)-3-((S)-1-isopropyl-2-oxopiperidin-3-yl)-5-methyl-6-(2H-1,2,3-triazol-2-yl)thieno[2,3-d]pyrimidine-2,4(1H,3H)-dione] had an IC50 on Human ACC2 of 10 to 100 nM.

`COc1ccc(F)cc1[C@H](Cn1c(=O)n([C@@H]2CCCN(C(C)C)C2=O)c(=O)c2c(C)c(-n3nccn3)sc21)OC1CCOCC1` [Compound I-77, 1-((R)-2-(5-fluoro-2-methoxyphenyl)-2-((tetrahydro-2H-pyran-4-yl)oxy)ethyl)-3-((R)-1-isopropyl-2-oxopiperidin-3-yl)-5-methyl-6-(2H-1,2,3-triazol-2-yl)thieno[2,3-d]pyrimidine-2,4(1H,3H)-dione] came in with an IC50 on Human ACC2 of 2 to 10 nM.

In the case of `COc1ccc(F)cc1[C@H](Cn1c(=O)n([C@@H]2CCCN(C)C2=O)c(=O)c2c(C)c(-c3ncco3)sc21)OCCO` [Compound I-65, 1-((R)-2-(5-fluoro-2-methoxyphenyl)-2-(2-hydroxy-ethoxy)ethyl)-5-methyl-3-((R)-1-methyl-2-oxopiperidin-3-yl)-6-(oxazol-2-yl)thieno[2,3-d]pyrimidine-2,4(1H,3H)-dione], the minimal inhibitory concentration (MIC) (in the assay with C. krusei ATCC 6258; in the assay with C. albicans ATCC 90028; in assay [1]) was 2.1 to 4 µg/mL (≈ 3.67 to 6.99 µM) in each case. The compound also showed an IC50 against Human ACC2 of 10 to 100 nM.

At Human ACC2, `COc1ccc(F)cc1[C@H](Cn1c(=O)n([C@@]2(C)CCNC2=O)c(=O)c2c(C)c(-n3nccn3)sc21)OCCO` [Compound I-145, 1-((R)-2-(5-fluoro-2-methoxyphenyl)-2-(2-hydroxy-ethoxy)ethyl)-5-methyl-3-((S)-3-methyl-2-oxopyrrolidin-3-yl)-6-(2H-1,2,3-triazol-2-yl)thieno[2,3-d]pyrimidine-2,4(1H,3H)-dione] showed an IC50 above 1000 nM.

As to `COc1ccc(F)cc1[C@H](Cn1c(=O)n(C2CCN(C(C)C)C2=O)c(=O)c2c(C)c(-n3nccn3)sc21)OCCO` (stereo partly drawn) [Compound I-8, 1-((R)-2-(5-fluoro-2-methoxyphenyl)-2-(2-hydroxyethoxy)ethyl)-3-(1-isopropyl-2-oxopyrrolidin-3-yl)-5-methyl-6-(2H-1,2,3-triazol-2-yl)thieno[2,3-d]pyrimidine-2,4(1H,3H)-dione], the IC50 at Human ACC2 is 2 to 10 nM.

Regarding `COc1ccc(F)cc1[C@H](Cn1c(=O)n([C@]2(C)CCN(C)C2=O)c(=O)c2c(C)c(-n3nccn3)sc21)OCCO` [Compound I-147, 3-((R)-1,3-dimethyl-2-oxopyrrolidin-3-yl)-1-((R)-2-(5-fluoro-2-methoxyphenyl)-2-(2-hydroxyethoxy)ethyl)-5-methyl-6-(2H-1,2,3-triazol-2-yl)thieno[2,3-d]pyrimidine-2,4(1H,3H)-dione], the 50% inhibitory concentration (IC50) at Human ACC2 was above 1000 nM.
